From patent US5488060A, “Substituted thiadiazoles, compositions containing them and their use as antimicrobial and marine antifouling agents” (The Dow Chemical Company, priority 1994, dated 1996)
In brackets after ≈: the same amount, converted by molar mass. Like-named read-outs stand apart in the source and are kept apart here.

Experiments:
Type in all cases: cell-based
[1] = test system: Klebsiella pneumoniae (Kp); assay: Minimum inhibitory concentration (MIC) in nutrient agar, Klebsiella pneumoniae
Protocol: (§1) The antimicrobial activity of the compounds of the present invention is set forth as the minimum inhibitory concentration (MIC) for the active compounds and is determined for nine (9) bacteria, using nutrient agar, and seven (7) yeast and fungi, using malt yeast agar. This determination is conducted using a one percent solution of the test compound prepared in a mixture of acetone and water.
(§2) Nutrient agar is prepared at pH 6.8, representing a neutral medium, and at pH 8.2, representing an alkaline medium. The nutrient agars are prepared by adding 23 g of nutrient agar to one-liter of deionized water. In addition, the alkaline medium is prepared by adjusting a 0.04M solution of N-[tris-(hydroxymethyl)methyl]glycine buffered deionized water with concentrated sodium hydroxide to a pH of 8.5.
(§3) The test tubes containing the agar are cooled in a water bath until the temperature of the agar is 48° C. Then, an appropriate amount of the one percent solution of the test compound is added (except in the controls where no compound is added) to the respective test tubes so that the final concentrations are 500, […], 100, 50, 25, 10, 5, 2.5, 1.0 and zero parts per million of the test compound in the agar, thus having a known concentration of test compound dispersed therein. The contents of the test tubes are then transferred to respective petri plates. After drying for 24 hours, the petri plates containing nutrient agar are inoculated with bacteria and those containing malt yeast agar are inoculated with yeast and fungi.
(§4) The inoculation with bacteria is accomplished by using the following procedure. Twenty-four hour-cultures of each of the bacteria are prepared by incubating the respective bacteria in tubes containing nutrient broth for 24 hours at 30° C. in a shaker. Dilutions of each of the 24 hour-cultures are made so that nine separate suspensions (one for each of the nine test bacteria) are made, each containing 10^8 colony forming units (CFU) per mL of suspension of a particular bacteria. Aliquots of 0.3 mL of each of the bacterial suspensions are used to fill the individual wells of Steer's Replicator. For each microbial suspension, 0.3 mL was used to fill three wells (i.e., three wells of 0.3 mL each) so that for the nine different bacteria, 27 wells are filled. The Steer's Replicator is then used to inoculate both the neutral and alkaline pH nutrient agar petri plates.
(§5) The inoculated petri plates are incubated at 30° C. for 48 hours and then read to determine if the test compound which is incorporated into the agar prevented growth of the respective bacteria.

Escherichia coli (Ec) = assay: Minimum inhibitory concentration (MIC) in nutrient agar, Escherichia coli
Protocol: as §1, §2, §3, §4, §5

Bacillus subtilis (Bs) = assay: Minimum inhibitory concentration (MIC) in nutrient agar, Bacillus subtilis
Protocol: as §1, §2, §3, §4, §5

[2] = test system: Enterobacter aerogenes (Ea); assay: Minimum inhibitory concentration (MIC) in nutrient agar, Enterobacter aerogenes; details: Klebsiella aerogenes
Protocol: as §1, §2, §3, §4, §5

[3] = test system: Pseudomonas aeruginosa (Pa); assay: Minimum inhibitory concentration (MIC) in nutrient agar, Pseudomonas aeruginosa
Protocol: as §1, §2, §3, §4, §5

[4] = test system: Salmonella choleraesuis (Se); assay: Minimum inhibitory concentration (MIC) in nutrient agar, Salmonella choleraesuis; details: Salmonella enterica
Protocol: as §1, §2, §3, §4, §5

[5] = test system: Penicillium chrysogenum (Pc); assay: Minimum inhibitory concentration (MIC) in malt yeast agar, Penicillium chrysogenum; details: pH 5.5; malt yeast agar, 30° C., 72 hours for fungi; read-out: Minimum Inhibitory Concentration, PC
Protocol: as §1
(§6) Malt yeast agar is prepared at pH 5.5 by adding 3 g yeast extract and 45 g malt agar per liter of deionized water. The specific agar is dispensed in 30 mL aliquots into 25×200 mm test tubes, capped and autoclaved for 15 minutes at 115° C.
as §3
(§7) The inoculation with the yeast and fungi is accomplished as follows. Cultures of yeast and fungi are incubated for seven days on malt yeast agar at 30° C. These cultures are used to prepare suspensions by the following procedure. A suspension of each organism is prepared by adding 10 mL of sterile saline and 10 microliters of octylphenoxy polyethoxy ethanol to the agar slant of yeast or fungi. The sterile saline/octylphenoxy potyethoxy ethanol solution is then agitated with a sterile swab to suspend the microorganism grown on the slant. Each resulting suspension is diluted into sterile saline (1 part suspension: 9 parts sterile saline). Aliquots of these dilutions are placed in individual wells of Steer's Replicator and petri plates inoculated as previously described. The petri plates are incubated at 30° C. and read after 48 hours for yeast and 72 hours for fungi.

[6] = test system: Pseudomonas aeruginosa (PRD-10); assay: Minimum inhibitory concentration (MIC) in nutrient agar, Pseudomonas aeruginosa PRD-10; details: 48 h
Protocol: as §1, §2, §3, §4, §5

[7] = test system: Saccharomyces cerevisiae (Sc); assay: Minimum inhibitory concentration (MIC) in malt yeast agar, Saccharomyces cerevisiae
Protocol: as §1, §6, §3, §7

Trichoderma viride (Tv) = assay: Minimum inhibitory concentration (MIC) in malt yeast agar, Trichoderma viride; details: pH 5.5; malt yeast agar, 30° C., 72 hours for fungi; read-out: Minimum Inhibitory Concentration, Tv
Protocol: as §1, §6, §3, §7

Aspergillus niger (An) = assay: Minimum inhibitory concentration (MIC) in malt yeast agar, Aspergillus niger; details: pH 5.5; malt yeast agar, 30° C., 72 hours for fungi; read-out: Minimum Inhibitory Concentration, An
Protocol: as §1, §6, §3, §7

Proteus vulgaris (Pv) = assay: Minimum inhibitory concentration (MIC) in nutrient agar, Proteus vulgaris
Protocol: as §1, §2, §3, §4, §5

[8] = test system: Aureobasidium pullulan (Ap); assay: Minimum inhibitory concentration (MIC) in malt yeast agar, Aureobasidium pullulan; details: pH 5.5, read-out: Minimum Inhibitory Concentration, Ap
Protocol: as §1, §6, §3, §7

Candida albicans (Ca) = assay: Minimum inhibitory concentration (MIC) in malt yeast agar, Candida albicans
Protocol: as §1, §6, §3, §7

[9] = test system: Staphylococcus aureus (Sa); assay: Minimum inhibitory concentration (MIC) in nutrient agar, Staphylococcus aureus
Protocol: as §1, §2, §3, §4, §5

Fusarium oxysporum (Fo) = assay: Minimum inhibitory concentration (MIC) in malt yeast agar, Fusarium oxysporum
Protocol: as §1, §6, §3, §7

[10] = 48 h, pH 8.2, read-out: Minimum Inhibitory Concentration, Kp
[11] = pH 6.8, nutrient agar, 30° C., 48 hours, read-out: Minimum Inhibitory Concentration, Kp
[12] = 48 h, pH 6.8, read-out: Minimum Inhibitory Concentration, Ec
[13] = 48 h, pH 8.2, read-out: Minimum Inhibitory Concentration, Ec
[14] = 48 h, pH 8.2, read-out: Minimum Inhibitory Concentration, Bs
[15] = pH 6.8, nutrient agar, 30° C., 48 hours, read-out: Minimum Inhibitory Concentration, Bs
[16] = 48 h, pH 6.8, read-out: Minimum Inhibitory Concentration, Ea
[17] = 48 h, pH 8.2, read-out: Minimum Inhibitory Concentration, Ea
[18] = pH 8.2, nutrient agar, 30° C., 48 hours, read-out: Minimum Inhibitory Concentration, Pa
[19] = 48 h, pH 6.8, read-out: Minimum Inhibitory Concentration, SC
[20] = 48 h, pH 8.2, read-out: Minimum Inhibitory Concentration, SC
[21] = pH 6.8, read-out: Minimum Inhibitory Concentration, PRD
[22] = pH 8.2, read-out: Minimum Inhibitory Concentration, PRD
[23] = 48 h, pH 6.8, read-out: Minimum Inhibitory Concentration, Pv
[24] = 48 h, pH 8.2, read-out: Minimum Inhibitory Concentration, Pv
[25] = pH 5.5, malt yeast agar, 30° C., 48 hours for yeast, read-out: Minimum Inhibitory Concentration, Ca
[26] = 48 h, pH 8.2, read-out: Minimum Inhibitory Concentration, Sa
[27] = pH 6.8, nutrient agar, 30° C., 48 hours, read-out: Minimum Inhibitory Concentration, Sa
[28] = pH 6.8, nutrient agar, 30° C., 48 hours, read-out: Minimum Inhibitory Concentration, Pa
[29] = pH 5.5, malt yeast agar, 30° C., 48 hours for yeast, read-out: Minimum Inhibitory Concentration, SC

Compound	MIC [1, 10] [µg/mL]	MIC [1, 11] [µg/mL]	MIC (Escherichia coli (Ec); [12]) [µg/mL]	MIC (Escherichia coli (Ec); [13]) [µg/mL]	MIC (Bacillus subtilis (Bs); [14]) [µg/mL]	MIC (Bacillus subtilis (Bs); [15]) [µg/mL]	MIC [2, 16] [µg/mL]	MIC [2, 17] [µg/mL]	MIC [3, 18] [µg/mL]	MIC [4, 19] [µg/mL]	MIC [4, 20] [µg/mL]	MIC [6, 21] [µg/mL]	MIC [6, 22] [µg/mL]	MIC (Trichoderma viride (Tv)) [µg/mL]	MIC (Aspergillus niger (An)) [µg/mL]	MIC (Proteus vulgaris (Pv); [23]) [µg/mL]	MIC (Proteus vulgaris (Pv); [24]) [µg/mL]	MIC [8] [µg/mL]	MIC (Candida albicans (Ca); [25]) [µg/mL]	MIC [9, 26] [µg/mL]	further results
N#CSc1nsnc1-c1ccc(C(F)(F)F)cc1 [Example X, 4-(4-Trifluoromethylphenyl)-3-thiocyanato-1,2,5-thiadiazole]	500 (≈ 1740 µM)	> 500	> 500	500 (≈ 1740 µM)	500 (≈ 1740 µM)	25 (≈ 87 µM)	> 500	500 (≈ 1740 µM)	500 (≈ 1740 µM)	> 500	500 (≈ 1740 µM)	> 500	500 (≈ 1740 µM)	2.5 (≈ 8.7 µM)	5 (≈ 17.4 µM)	> 500	500 (≈ 1740 µM)	2.5 (≈ 8.7 µM)	5 (≈ 17.4 µM)	500 (≈ 1740 µM)	MIC ([3]; 48 h, pH 6.8, read-out: Minimum Inhibitory Concentration, Pa): > 50 µg/mL; MIC [5]: 5 µg/mL (≈ 17.4 µM); MIC ([7]; 48 h, pH 5.5, read-out: Minimum Inhibitory Concentration, SC): 2.5 µg/mL (≈ 8.7 µM); MIC [9, 27]: > 500 µg/mL
N#CSc1nsnc1-c1cccnc1 [Example XV, 4-(3-Pyridyl)-3-thiocyanato-1,2,5-thiadiazole]	500 (≈ 2270 µM)	100 (≈ 454 µM)		500 (≈ 2270 µM)		25 (≈ 113 µM)		500 (≈ 2270 µM)			500 (≈ 2270 µM)	500 (≈ 2270 µM)	500 (≈ 2270 µM)		100 (≈ 454 µM)		500 (≈ 2270 µM)	50 (≈ 227 µM)			MIC (Escherichia coli (Ec); pH 6.8, nutrient agar, 30° C., 48 hours, read-out: Minimum Inhibitory Concentration, Ec): 250 µg/mL (≈ 1130 µM); MIC (Bacillus subtilis (Bs); pH 8.2, nutrient agar, 30° C., 48 hours, read-out: Minimum Inhibitory Concentration, Bs): 100 µg/mL (≈ 454 µM); MIC ([2]; pH 6.8, nutrient agar, 30° C., 48 hours, read-out: Minimum Inhibitory Concentration, Ea): 250 µg/mL (≈ 1130 µM); MIC ([3]; 48 h, pH 8.2, read-out: Minimum Inhibitory Concentration, Pa): 500 µg/mL (≈ 2270 µM); MIC [3, 28]: 500 µg/mL (≈ 2270 µM); MIC ([4]; pH 6.8, nutrient agar, 30° C., 48 hours, read-out: Minimum Inhibitory Concentration, SC): 250 µg/mL (≈ 1130 µM); MIC [7, 29]: 50 µg/mL (≈ 227 µM); MIC (Fusarium oxysporum (Fo); 72 h, pH 5.5, read-out: Minimum Inhibitory Concentration, Fo): 50 µg/mL (≈ 227 µM); MIC (Proteus vulgaris (Pv); pH 6.8, nutrient agar, 30° C., 48 hours, read-out: Minimum Inhibitory Concentration, Pv): 100 µg/mL (≈ 454 µM); MIC (Candida albicans (Ca); 48 h, pH 5.5, read-out: Minimum Inhibitory Concentration, Ca): 100 µg/mL (≈ 454 µM); MIC ([9]; 48 h, pH 6.8, read-out: Minimum Inhibitory Concentration, Sa): 50 µg/mL (≈ 227 µM)
COC(=O)c1ccc(-c2nsnc2SCSC#N)cc1 [Example XXVIII]	> 500	500 (≈ 1550 µM)	500 (≈ 1550 µM)	500 (≈ 1550 µM)	500 (≈ 1550 µM)		500 (≈ 1550 µM)	> 500	> 500	500 (≈ 1550 µM)	> 500	500 (≈ 1550 µM)	> 500	> 500	100 (≈ 309 µM)	500 (≈ 1550 µM)	> 500	50 (≈ 155 µM)	500 (≈ 1550 µM)	500 (≈ 1550 µM)	MIC (Bacillus subtilis (Bs); 48 h, pH 6.8, read-out: Minimum Inhibitory Concentration, Bs): 500 µg/mL (≈ 1550 µM); MIC [3, 28]: 500 µg/mL (≈ 1550 µM); MIC [7, 29]: 250 µg/mL (≈ 773 µM); MIC (Fusarium oxysporum (Fo); pH 5.5, malt yeast agar, 30° C., 72 hours for fungi, read-out: Minimum Inhibitory Concentration, Fo): 250 µg/mL (≈ 773 µM); MIC [9, 27]: 500 µg/mL (≈ 1550 µM)
